Earlier results, collected in patent US11045483B2, “Pain-killing composition comprising a salicylic acid derivative” (AB7 INNOVATION S.A.S.U, priority 2015, dated 2021).

Details: topical application of formulations; Sheree E. Cross et al., 1998

time that must elapse before detection in the circulatory system: around 60 minutes
Structure (SMILES): COC(=O)c1ccccc1O [methyl salicylate]
